Results: PubChem BioAssay (NCI)
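Interpolation was linear, between the two tested concentrations surrounding the appropriate level; five concentrations were tested over 48 hours in 96-well plates. Here, GI50 denotes the concentration required for 50% inhibition of growth. Definition used: TGI = concentration required for complete inhibition of growth.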

How the values were obtained:
Assay in all cases: NCI-60 cell line screen, 48 h
NCI-H460 lung = system: NCI-H460 lung
786-0 renal = system: 786-0 renal
HOP-92 NSCLC = system: HOP-92 NSCLC
HL-60(TB) leukemia = system: HL-60(TB) leukemia
SK-MEL-28 melanoma = system: SK-MEL-28 melanoma
OVCAR-5 ovarian = system: OVCAR-5 ovarian
SR leukemia = system: SR leukemia
A549 NSCLC = system: A549 NSCLC
EKVX NSCLC = system: EKVX NSCLC
HS 578T breast = system: HS 578T breast
M14 melanoma = system: M14 melanoma
HOP-62 NSCLC = system: HOP-62 NSCLC
CCRF-CEM leukemia = system: CCRF-CEM leukemia
OVCAR-8 ovarian = system: OVCAR-8 ovarian
SF-539 CNS = system: SF-539 CNS
SNB-19 CNS = system: SNB-19 CNS
NCI-H23 lung = system: NCI-H23 lung
MOLT-4 leukemia = system: MOLT-4 leukemia
SK-MEL-2 melanoma = system: SK-MEL-2 melanoma
DU-145 prostate = system: DU-145 prostate
SN12C renal = system: SN12C renal
NCI-H522 lung = system: NCI-H522 lung
UACC-257 melanoma = system: UACC-257 melanoma
PC-3 prostate = system: PC-3 prostate
HCC-2998 colon = system: HCC-2998 colon
SNB-75 CNS = system: SNB-75 CNS
SK-OV-3 ovarian = system: SK-OV-3 ovarian
UO-31 renal = system: UO-31 renal
K-562 leukemia = system: K-562 leukemia

Q: COc1ccc(S(=O)(=O)NC2=NCCN2C(=S)SN2CCn3c2nsc3=S)cc1OC was tested. Which GI50 (NCI-H460 lung) did it give?
A: 28.1 µM

Q: What about the TGI (NCI-H460 lung) of the same compound?
A: > 100 µM

Q: What about the GI50 (786-0 renal) of the same compound?
A: 25.5 µM

Q: What about the TGI (786-0 renal) of the same compound?
A: 63.9 µM

Q: And the GI50 (HOP-92 NSCLC)?
A: 23.2 µM

Q: What about the TGI (HOP-92 NSCLC) of the same compound?
A: 48.6 µM

Q: And the GI50 (HL-60(TB) leukemia)?
A: > 100 µM

Q: And the TGI (HL-60(TB) leukemia)?
A: > 100 µM

Q: What about the GI50 (SK-MEL-28 melanoma) of the same compound?
A: 16.5 µM

Q: And the TGI (SK-MEL-28 melanoma)?
A: 37.5 µM

Q: What about the GI50 (OVCAR-5 ovarian) of the same compound?
A: 20.8 µM

Q: What about the TGI (OVCAR-5 ovarian) of the same compound?
A: 40.4 µM

Q: What about the GI50 (SR leukemia) of the same compound?
A: 22.6 µM

Q: What about the TGI (SR leukemia) of the same compound?
A: > 100 µM

Q: And the GI50 (A549 NSCLC)?
A: 27.9 µM

Q: What about the TGI (A549 NSCLC) of the same compound?
A: > 100 µM

Q: And the GI50 (EKVX NSCLC)?
A: 50.1 µM

Q: What about the TGI (EKVX NSCLC) of the same compound?
A: > 100 µM

Q: What about the GI50 (HS 578T breast) of the same compound?
A: 28.4 µM

Q: And the TGI (HS 578T breast)?
A: > 100 µM

Q: What about the GI50 (M14 melanoma) of the same compound?
A: 20.4 µM

Q: What about the TGI (M14 melanoma) of the same compound?
A: 48.8 µM

Q: What about the GI50 (HOP-62 NSCLC) of the same compound?
A: 27.5 µM

Q: What about the TGI (HOP-62 NSCLC) of the same compound?
A: 78.3 µM

Q: And the GI50 (CCRF-CEM leukemia)?
A: 11.3 µM

Q: And the TGI (CCRF-CEM leukemia)?
A: 30.9 µM

Q: What about the GI50 (OVCAR-8 ovarian) of the same compound?
A: 29.5 µM

Q: What about the TGI (OVCAR-8 ovarian) of the same compound?
A: > 100 µM

Q: And the GI50 (SF-539 CNS)?
A: 34.3 µM

Q: And the TGI (SF-539 CNS)?
A: > 100 µM

Q: What about the GI50 (SNB-19 CNS) of the same compound?
A: 26.6 µM

Q: What about the TGI (SNB-19 CNS) of the same compound?
A: > 100 µM

Q: What about the GI50 (NCI-H23 lung) of the same compound?
A: 22.4 µM

Q: And the TGI (NCI-H23 lung)?
A: 53 µM

Q: What about the GI50 (MOLT-4 leukemia) of the same compound?
A: 27.1 µM

Q: And the TGI (MOLT-4 leukemia)?
A: > 100 µM

Q: And the GI50 (SK-MEL-2 melanoma)?
A: 24.1 µM

Q: And the TGI (SK-MEL-2 melanoma)?
A: 75.1 µM

Q: What about the GI50 (DU-145 prostate) of the same compound?
A: 41 µM

Q: What about the TGI (DU-145 prostate) of the same compound?
A: > 100 µM

Q: And the GI50 (SN12C renal)?
A: 22.6 µM

Q: What about the TGI (SN12C renal) of the same compound?
A: 54.9 µM

Q: What about the GI50 (NCI-H522 lung) of the same compound?
A: 13 µM

Q: What about the TGI (NCI-H522 lung) of the same compound?
A: 38.8 µM

Q: What about the GI50 (UACC-257 melanoma) of the same compound?
A: 25.1 µM

Q: And the TGI (UACC-257 melanoma)?
A: 82.9 µM

Q: And the GI50 (PC-3 prostate)?
A: 27.1 µM

Q: What about the TGI (PC-3 prostate) of the same compound?
A: 94 µM

Q: What about the GI50 (HCC-2998 colon) of the same compound?
A: 24.7 µM

Q: And the TGI (HCC-2998 colon)?
A: 44.1 µM

Q: And the GI50 (SNB-75 CNS)?
A: 12.7 µM

Q: What about the TGI (SNB-75 CNS) of the same compound?
A: 46.4 µM

Q: What about the GI50 (SK-OV-3 ovarian) of the same compound?
A: 21.9 µM

Q: What about the TGI (SK-OV-3 ovarian) of the same compound?
A: 55.2 µM

Q: What about the GI50 (UO-31 renal) of the same compound?
A: 35.8 µM

Q: What about the TGI (UO-31 renal) of the same compound?
A: > 100 µM

Q: And the GI50 (K-562 leukemia)?
A: 27.4 µM

Q: What about the TGI (K-562 leukemia) of the same compound?
A: > 100 µM
